The text below walks through data of ChEMBL document CHEMBL5465560, “Selectivity Literature for EUbOPEN Chemogenomic Library” (2024).

Assay [1] has as its target T1, Serine/threonine-protein kinase tousled-like 1 (Homo sapiens) (UniProt Q9UKI8).
T1 sequence (whole entry): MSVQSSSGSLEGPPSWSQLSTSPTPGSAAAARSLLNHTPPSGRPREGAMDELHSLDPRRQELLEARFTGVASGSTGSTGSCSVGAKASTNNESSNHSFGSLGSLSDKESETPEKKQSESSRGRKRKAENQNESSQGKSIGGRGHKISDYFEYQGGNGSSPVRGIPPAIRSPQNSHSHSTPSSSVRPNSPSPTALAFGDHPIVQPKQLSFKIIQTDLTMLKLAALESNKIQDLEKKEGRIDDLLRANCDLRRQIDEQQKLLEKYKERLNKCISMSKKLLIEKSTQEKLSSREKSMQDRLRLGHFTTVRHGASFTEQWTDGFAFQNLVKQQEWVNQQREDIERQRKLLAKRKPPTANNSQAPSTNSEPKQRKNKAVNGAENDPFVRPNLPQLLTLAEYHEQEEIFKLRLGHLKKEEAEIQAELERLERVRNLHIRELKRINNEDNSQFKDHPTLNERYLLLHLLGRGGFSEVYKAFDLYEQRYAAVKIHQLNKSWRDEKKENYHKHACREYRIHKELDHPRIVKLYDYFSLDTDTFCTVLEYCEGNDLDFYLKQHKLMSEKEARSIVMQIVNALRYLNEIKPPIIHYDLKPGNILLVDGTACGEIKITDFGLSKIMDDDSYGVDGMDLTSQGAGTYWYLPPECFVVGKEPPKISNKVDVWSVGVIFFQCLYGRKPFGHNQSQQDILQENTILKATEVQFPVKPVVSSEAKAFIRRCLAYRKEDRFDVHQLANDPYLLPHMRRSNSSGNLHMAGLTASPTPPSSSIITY
To be noted: at 10 µM.

The target in assay [2] is T2, Dual specificity mitogen-activated protein kinase kinase 6 (Homo sapiens) (UniProt P52564).
T2 sequence (whole entry): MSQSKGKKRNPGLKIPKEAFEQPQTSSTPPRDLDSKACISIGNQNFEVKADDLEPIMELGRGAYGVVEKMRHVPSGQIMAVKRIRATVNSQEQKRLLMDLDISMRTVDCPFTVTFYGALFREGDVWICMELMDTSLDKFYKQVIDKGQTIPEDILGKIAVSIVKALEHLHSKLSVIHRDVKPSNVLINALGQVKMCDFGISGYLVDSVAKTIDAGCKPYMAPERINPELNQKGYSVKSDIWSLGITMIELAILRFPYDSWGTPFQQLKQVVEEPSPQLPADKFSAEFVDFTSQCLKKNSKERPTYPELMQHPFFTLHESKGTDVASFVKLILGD
Kind of assay: Selectivity interaction (ActivX KiNativ screen (ex vivo kinase selectivity in human PBMCs)) EUB0001619a MAP2K6. It is filed as cell-based. To be noted: PBMC, at 1 µM.

Assay [3] addresses SRSF protein kinase 2 (Homo sapiens) (UniProt P78362). Kind of assay: Selectivity interaction (KinomeScan (DiscoverX)) EUB0000695a SRPK2. To be noted: at 100 nM.
Assay [4] has as its target Platelet-derived growth factor receptor beta (Homo sapiens, UniProt P09619). Kind of assay: Selectivity interaction (SelectScreen profiling (Invitrogen)) EUB0000607a PDGFRB. To be noted: at 2 µM.
Assay [5] addresses Tyrosine-protein kinase BTK (Homo sapiens, UniProt Q06187). The experiment in a line: Selectivity interaction (Kinase panel (literature)) EUB0001199aCl BTK. To be noted: at 1 µM.
For assay [6], the target named is T3, Serine/threonine-protein kinase Nek10 (Homo sapiens) (UniProt Q6ZWH5).
T3 sequence (whole entry): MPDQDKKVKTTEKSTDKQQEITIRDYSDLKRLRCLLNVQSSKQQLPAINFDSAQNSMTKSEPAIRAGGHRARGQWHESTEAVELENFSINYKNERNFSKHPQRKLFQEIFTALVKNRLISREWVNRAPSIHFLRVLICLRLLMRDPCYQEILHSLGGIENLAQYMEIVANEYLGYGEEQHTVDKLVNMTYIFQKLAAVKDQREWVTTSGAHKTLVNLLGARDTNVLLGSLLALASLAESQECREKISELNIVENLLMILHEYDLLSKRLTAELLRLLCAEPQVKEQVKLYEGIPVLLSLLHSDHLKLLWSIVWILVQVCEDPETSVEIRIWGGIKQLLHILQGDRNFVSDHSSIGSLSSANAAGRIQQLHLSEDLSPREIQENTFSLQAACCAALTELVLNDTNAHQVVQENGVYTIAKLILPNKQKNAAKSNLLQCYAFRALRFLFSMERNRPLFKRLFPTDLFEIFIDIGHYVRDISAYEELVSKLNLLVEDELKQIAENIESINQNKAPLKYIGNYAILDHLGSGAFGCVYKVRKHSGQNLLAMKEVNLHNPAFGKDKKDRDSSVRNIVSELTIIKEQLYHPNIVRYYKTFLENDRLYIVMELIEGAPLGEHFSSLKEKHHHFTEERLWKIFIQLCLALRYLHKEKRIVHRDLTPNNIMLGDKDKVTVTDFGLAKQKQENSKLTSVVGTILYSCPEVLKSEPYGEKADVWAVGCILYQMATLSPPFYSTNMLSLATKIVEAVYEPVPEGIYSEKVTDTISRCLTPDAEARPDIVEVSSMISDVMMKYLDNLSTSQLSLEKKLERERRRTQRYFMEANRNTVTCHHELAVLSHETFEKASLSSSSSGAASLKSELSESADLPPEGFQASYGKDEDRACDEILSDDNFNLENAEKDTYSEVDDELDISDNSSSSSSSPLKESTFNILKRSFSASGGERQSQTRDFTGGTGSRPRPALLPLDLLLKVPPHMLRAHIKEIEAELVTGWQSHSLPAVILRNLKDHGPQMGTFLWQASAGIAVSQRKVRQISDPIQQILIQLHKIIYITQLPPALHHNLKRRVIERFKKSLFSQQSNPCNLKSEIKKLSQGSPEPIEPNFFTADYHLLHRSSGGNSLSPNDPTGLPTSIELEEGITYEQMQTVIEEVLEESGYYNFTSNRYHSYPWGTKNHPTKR
Kind of assay: Selectivity interaction (Ambit KINOMEscan and KiNATiv profiling in Jurkat cells) EUB0000090b NEK10. In kind it is cell-based. To be noted: at 1 µM.

Sequence of Tyrosine-protein kinase BTK (Q06187 whole entry): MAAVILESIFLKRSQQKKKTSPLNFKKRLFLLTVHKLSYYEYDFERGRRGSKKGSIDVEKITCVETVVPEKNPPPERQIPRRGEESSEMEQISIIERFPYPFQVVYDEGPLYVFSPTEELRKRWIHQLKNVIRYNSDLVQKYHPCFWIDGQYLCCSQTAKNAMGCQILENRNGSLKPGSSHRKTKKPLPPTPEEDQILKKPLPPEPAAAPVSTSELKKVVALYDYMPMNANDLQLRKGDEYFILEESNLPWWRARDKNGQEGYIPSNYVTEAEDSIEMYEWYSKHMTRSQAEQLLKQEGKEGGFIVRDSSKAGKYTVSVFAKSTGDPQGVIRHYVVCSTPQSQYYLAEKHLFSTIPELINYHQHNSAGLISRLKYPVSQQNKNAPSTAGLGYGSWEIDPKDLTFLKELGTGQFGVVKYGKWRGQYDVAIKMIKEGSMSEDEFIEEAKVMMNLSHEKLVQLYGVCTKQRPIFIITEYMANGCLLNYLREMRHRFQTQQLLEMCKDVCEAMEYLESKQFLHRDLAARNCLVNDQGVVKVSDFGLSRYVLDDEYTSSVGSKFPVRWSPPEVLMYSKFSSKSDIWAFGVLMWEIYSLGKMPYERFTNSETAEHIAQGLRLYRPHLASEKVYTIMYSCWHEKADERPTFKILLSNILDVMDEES
Sequence of SRSF protein kinase 2 (Homo sapiens) (P78362 whole entry, looked up): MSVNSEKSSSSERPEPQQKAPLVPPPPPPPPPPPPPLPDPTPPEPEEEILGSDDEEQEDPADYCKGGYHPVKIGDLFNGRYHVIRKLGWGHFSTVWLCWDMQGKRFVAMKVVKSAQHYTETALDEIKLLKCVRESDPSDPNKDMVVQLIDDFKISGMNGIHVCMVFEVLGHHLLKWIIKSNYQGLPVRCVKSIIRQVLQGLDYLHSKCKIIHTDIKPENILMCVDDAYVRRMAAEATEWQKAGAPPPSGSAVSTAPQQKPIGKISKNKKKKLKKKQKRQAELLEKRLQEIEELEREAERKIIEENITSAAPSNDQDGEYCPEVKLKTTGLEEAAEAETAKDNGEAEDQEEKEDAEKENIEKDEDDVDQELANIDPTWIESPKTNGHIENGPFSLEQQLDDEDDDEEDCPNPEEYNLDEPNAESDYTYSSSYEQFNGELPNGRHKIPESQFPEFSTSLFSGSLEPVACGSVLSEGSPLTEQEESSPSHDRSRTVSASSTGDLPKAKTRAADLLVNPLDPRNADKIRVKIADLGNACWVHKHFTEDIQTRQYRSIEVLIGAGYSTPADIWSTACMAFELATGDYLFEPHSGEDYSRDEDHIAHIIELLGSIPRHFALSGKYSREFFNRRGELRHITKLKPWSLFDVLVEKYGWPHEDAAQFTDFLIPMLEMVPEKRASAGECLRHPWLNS
Sequence of Platelet-derived growth factor receptor beta (P09619 whole entry): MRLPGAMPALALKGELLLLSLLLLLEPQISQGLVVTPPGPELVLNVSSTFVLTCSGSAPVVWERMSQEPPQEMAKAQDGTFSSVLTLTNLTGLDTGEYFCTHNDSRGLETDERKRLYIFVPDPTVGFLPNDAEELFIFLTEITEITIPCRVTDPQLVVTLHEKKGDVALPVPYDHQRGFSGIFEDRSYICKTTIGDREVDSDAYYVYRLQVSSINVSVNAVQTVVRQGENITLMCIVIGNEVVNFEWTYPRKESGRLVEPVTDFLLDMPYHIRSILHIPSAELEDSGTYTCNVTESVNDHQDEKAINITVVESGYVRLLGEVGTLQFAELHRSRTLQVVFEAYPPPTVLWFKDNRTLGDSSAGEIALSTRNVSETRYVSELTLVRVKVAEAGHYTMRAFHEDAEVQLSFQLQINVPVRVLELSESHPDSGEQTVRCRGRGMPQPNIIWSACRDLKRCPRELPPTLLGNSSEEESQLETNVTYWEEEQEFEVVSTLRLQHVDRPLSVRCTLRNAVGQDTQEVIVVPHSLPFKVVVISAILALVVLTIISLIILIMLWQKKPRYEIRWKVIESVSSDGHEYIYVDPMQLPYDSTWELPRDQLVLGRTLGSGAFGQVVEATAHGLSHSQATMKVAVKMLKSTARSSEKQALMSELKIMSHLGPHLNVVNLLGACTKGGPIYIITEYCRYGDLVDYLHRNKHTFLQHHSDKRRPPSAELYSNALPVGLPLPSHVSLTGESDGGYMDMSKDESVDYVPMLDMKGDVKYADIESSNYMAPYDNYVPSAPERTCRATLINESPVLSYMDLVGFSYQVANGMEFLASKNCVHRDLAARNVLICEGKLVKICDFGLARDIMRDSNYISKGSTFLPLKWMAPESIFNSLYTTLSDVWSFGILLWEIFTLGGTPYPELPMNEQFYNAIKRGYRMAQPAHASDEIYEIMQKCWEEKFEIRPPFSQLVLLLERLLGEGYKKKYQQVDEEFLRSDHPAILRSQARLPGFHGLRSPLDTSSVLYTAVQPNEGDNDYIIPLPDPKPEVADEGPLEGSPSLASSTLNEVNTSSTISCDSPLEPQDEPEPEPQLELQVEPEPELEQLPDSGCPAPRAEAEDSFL

The compound `COCC(=O)NC/C=C/c1ccc2ncnc(Nc3ccc(Oc4ccc(C)nc4)c(C)c3)c2c1` [CP-724714] yielded a % of control in assay [1] of 79%. With `N#Cc1cccc(-c2c[nH]c3ncnc(N4CCOCC4)c23)c1`, in assay [2], the % of inhibition amounted to 9%. `Cc1cc(F)c(C(=O)Nc2cccc(-c3nncn3C(C)C)n2)cc1-n1cnc(C2CC2)c1` registered a % of control in assay [3] of 100%. Consider `CNC(=O)Nc1ccc(-c2nc(N3CC4CCC(C3)O4)c3cnn(C4CCC5(CC4)OCCO5)c3n2)cc1`, for which the % of inhibition in assay [4] was 2%. For `CN1Cc2nccc(-c3cn(C)nc3-c3ccc(F)cc3)c2C1=O`, the % of inhibition in assay [5] was 2%. For the compound `CN(C)C/C=C/C(=O)Nc1ccc(C(=O)N2CCCC(Nc3ncc(Cl)c(-c4c[nH]c5ccccc45)n3)C2)cc1` (stereo unspecified), the % of control in assay [6] is 100%.
